Assay results reported in patent publication US20130345234A1, “FGFR AND LIGANDS THEREOF AS BIOMARKERS FOR BREAST CANCER IN HR POSITIVE SUBJECTS” (priority 2011, published 2013).

Experiments:
[1] = tested on: FGFR downstream-signaling proteins AKT and ERK; test: Tyrosine phosphorylation of FGFR downstream-signaling proteins in xenograft tumors; assay type: in vivo, mice; settings: following a single oral dose
Description: (§1) Inhibition was observed up to 24 hours in certain models.

[2] = Phase 2 trial of dovitinib: adverse events; assay type: in vivo, human; settings: as of January 2011
Description: Patient selection was performed according to FISH/CISH for FGFR1 (cut-off≧6 gene copies). […] The primary endpoint was RECIST best overall response rate in pts with measurable disease per external radiology review.
Inclusion Criteria: • 1. Patients have histological confirmation of breast carcinoma with a clinical diagnosis of IBC based on presence of inflammatory changes in the involved breast, including diffuse erythema and edema (peau d orange), with or without an underlying palpable mass involving the majority of the skin of the breast. Pathological evidence of dermal lymphatic invasion should be noted but is not required for diagnosis. • 2. Patients have stage IV disease with local or distant relapse • 3. Patients have negative HER2 expression by IHC (defined as 0 or 1+), or FISH (fluorescence in situ hybridization). If HER2 is 2+, negative HER2 expression must be confirmed by FISH. • 4. Patients are able to swallow and retain oral medication. • 5. Patients have ECOG performance status 0-2. • 6. Patients have received up to 3 standard chemotherapies for metastatic disease and have relapsed. • 7. Patients have ability and willingness to sign written informed consent. • 8. Patients are 18 years of age or older. • 9. Female patients of childbearing potential (A person not free from menses>2 years or not surgically sterilized) must be willing to use two adequate barrier methods of contraception to prevent pregnancy or agree to abstain from heterosexual activity throughout the study. • 10. Female patients of childbearing potential must have negative serum pregnancy test. • 11. If Patients have been treated with anti-VEGF agents, such as Bevacizumab, last dose must be >4 weeks. • 12. Patients have biopsy tissue of the metastatic disease (including chest wall or regional nodes) available (paraffin blocks or up to 20 unstained slides), if no biopsy tissue available, a biopsy (or thoracentesis if patient has pleural effusion only) of the metastatic disease will be performed to confirm the diagnoses.
Exclusion Criteria: • 1. Patients are receiving concurrent anti-cancer therapy (chemotherapy, immunotherapy, radiation therapy and biological therapy) while taking study medication. • 2. Abnormal liver functions consisting of any of the following: a) Serum bilirubin>/=1.5×ULN, b) AST and ALT>/=2.5×ULN, (for patients with known liver metastasis, AST and ALT</=5×ULN is allowed), ANC<1.5. • 3. Patients have an active infection and require IV or oral antibiotics. • 4. Impaired cardiac function or clinically significant cardiac diseases, including any of the following: a) History or presence of serious uncontrolled ventricular arrhythmias or presence of atrial fibrillation; b) Clinically significant resting bradycardia (<50 beats per minute); c) LVEF<45% assessed by 2-D echocardiogram (ECHO) or Multiple gated acquisition scanning (MUGA); d) Any of the following within 6 months prior to study entry: myocardial infarction (MI), severe/unstable angina, Coronary Artery Bypass Graft (CABG), Congestive Heart Failure (CHF), Cerebrovascular Accident (CVA), Transient Ischemic Attack (TIA), Pulmonary Embolism (PE); e) Uncontrolled hypertension defined by an SBP>150 and/or a DBP>100 mm Hg with or without anti-hypertensive medication. • 5. History of gastrointestinal disorders (medical disorders or extensive surgery) which may interfere with the absorption of the study drug. • 6. Patients have a concurrent disease or condition that would make them inappropriate for study participation, or any serious medical disorder that would interfere with patients' safety. • 7. Patients with only locally or regionally confined disease without evidence of metastatic disease.

breast cancer cells = test: Model of disseminated disease: liver colonization from a subcutaneous xenograft primary; assay type: in vivo; settings: mice; subcutaneous (SC) xenograft primary; oral treatment
Description: as §1

tumor xenograft models = test: Antitumor activity in tumor xenograft models in athymic mice; assay type: in vivo; settings: administered orally, all models tested
Description: as §1

SMILES: CN1CCN(c2ccc3nc(-c4c(N)c5c(F)cccc5[nH]c4=O)[nH]c3c2)CC1 [dovitinib, 4-amino-5-fluoro-3-[6-(4-methylpiperazin-1-yl)-1H-benzimidazol-2-yl]-1H-quinolin-2-one]
- duration of inhibition of AKT and ERK phosphorylation ([1]; certain models): up to 24 hours
- tyrosine phosphorylation of AKT and ERK ([1]; xenograft tumors): inhibited
- adverse event: asthenia, Group 3 ([2]; Group 3): 17%
- adverse event: diarrhea, Group 3 ([2]; Group 3): 6%
- adverse event: nausea, Group 3 ([2]; Group 3): 5%
- adverse event: vomiting ([2]; all grades, 77 patients with data, 500 mg once daily, 5-day on/2-day off): 75%
- adverse event: asthenia ([2]; all grades): 61%
- adverse event: diarrhea ([2]; all grades): 72%
- adverse event: nausea ([2]; all grades): 62%
- adverse event: vomiting, grade 3 [Group 3] ([2]; grade 3): 6%
- colonization of breast cancer cells in the livers (breast cancer cells): significantly reduced
- antitumor activity in tumor xenograft models (tumor xenograft models): anti-tumor responses, ranging from growth inhibition and stasis to regression
